Data on 4 molecules can be found in patent publication US7220784B2, “Substituted stilbenes and their reactions” (priority 2000, dated 2007).

Data set [1] relates to P388 murine leukaemia cell line. The data set is described as follows: Cytotoxicity/growth inhibition assay (MTT), P388. Type of data set: cell-based. The procedure:
(§1) (2) Competition for the colchicine binding site on tubulin. The figure quoted represents the % of ^3H-colchicine bound following co-incubation of test compound and ^3H-cochicine with isolated tubulin. Where ester pro-drugs were used the experiments were carried out in the presence and absence of porcine liver esterase. • (3) Cytotoxicity/growth inhibition assay. This was carried out by the MTT assay. • (4) Permeability (shape-change) assay in endothelial cells. […] This involved the diffusion of a fluorescently labelled dextran through a barrier of endothelial cells (HUVEC) grown to confluence on a porous membrane. The effect of agents to alter the shape of these cells results in an increase in the permeability of the cells to the dye. The figure represents the increase in permeability over control cultures when drug is added (30 minutes, 1 mM.). • (5) Experiments to study the anti-vascular effects of these agents were carried out as described previously by our group. […] The anti-vascular effects of the agents were monitored by either positron emission tomography (PET) or by histologogical examination following treatment of mice bearing T50:80 murine breast tumours, or H460 human lung tumours. • (6) Anti-tumour efficacy of agents was determined in xenografts of H460 human lung cancer. Animals (n=5) were trated either with 5 daily injections and tumour size measured with time following treatment. • (7) The pharmacokinetic profile of agents was determined in mice following injection with drug. Blood was taken at various times following treatment and analysed by HPLC with UV detection. […] (AND(P)H:quinone oxidoreductace, EC 1.6.99.2). DT-diaphorase is an enzyme over-expressed in a number of human tumours. […] This two-electron reducing enzyme can be used to selectively activate prodrugs within cancers which over-express the enzyme.

Another data set deals with A2780. The data set is described as follows: Cytotoxicity/growth inhibition assay (MTT), A2780. Type of data set: cell-based. The note with it: read-out: A2780 IC50. As for the experimental part:
The following assays (1–5) were carried out as described in our paper (Woods, et al, British Journal of Cancer, 71, 705–711 (1995)). In addition to the cell lines described in this paper, other established human cell lines (K562, HUVEC, H460, BE, H529, and HT29) were used in the cytotoxicity/growth inhibition assay. • (1) Inhibition of tubulin assembly. The figure quoted is the concentration required to reduce assembly of tubulin by 50%. Tubulin assembly is monitored by light scatter/absorption at 350 nm.
(2) Competition for the colchicine binding site on tubulin. The figure quoted represents the % of ^3H-colchicine bound following co-incubation of test compound and ^3H-cochicine with isolated tubulin. Where ester pro-drugs were used the experiments were carried out in the presence and absence of porcine liver esterase. • (3) Cytotoxicity/growth inhibition assay. This was carried out by the MTT assay. • (4) Permeability (shape-change) assay in endothelial cells. This was carried out using a method based on that of Watts et al. (Anticancer Res., 17, 71–75, (1997)). This involved the diffusion of a fluorescently labelled dextran through a barrier of endothelial cells (HUVEC) grown to confluence on a porous membrane. The effect of agents to alter the shape of these cells results in an increase in the permeability of the cells to the dye. The figure represents the increase in permeability over control cultures when drug is added (30 minutes, 1 mM.). • (5) Experiments to study the anti-vascular effects of these agents were carried out as described previously by our group. (Zhao et al, European Journal of Nuclear Medicine, 26, 231–238 (1999)). The anti-vascular effects of the agents were monitored by either positron emission tomography (PET) or by histologogical examination following treatment of mice bearing T50:80 murine breast tumours, or H460 human lung tumours. • (6) Anti-tumour efficacy of agents was determined in xenografts of H460 human lung cancer. Animals (n=5) were trated either with 5 daily injections and tumour size measured with time following treatment. • (7) The pharmacokinetic profile of agents was determined in mice following injection with drug. Blood was taken at various times following treatment and analysed by HPLC with UV detection. The HPLC conditions were isocratic using a 5 micron C18 BDS column (150×4.6) ad eluting with 75% MeOH in water with a detection wavelength of 290 nm. […] (AND(P)H:quinone oxidoreductace, EC 1.6.99.2). DT-diaphorase is an enzyme over-expressed in a number of human tumours. […] This two-electron reducing enzyme can be used to selectively activate prodrugs within cancers which over-express the enzyme.

Data set [2] relates to K562. The data set is described as follows: K562 cell cycle analysis. Type of data set: cell-based, human. The note with it: K562; for % of cells in G0–G1 / % of cells in G2-M / % of cells in S phase: of cells with DNA content = 2 n or >2 n.
Data set [3] has as its system K562 human myelogeneous leukaemia cell line. The data set is described as follows: Cytotoxicity/growth inhibition assay (MTT), K562. The format is cell-based. The note with it: Homo sapiens, K562; MTT; read-out: K562 IC50.
Description: In addition to the cell lines described in this paper, other established human cell lines (K562, HUVEC, H460, BE, H529, and HT29) were used in the cytotoxicity/growth inhibition assay. • (1) Inhibition of tubulin assembly. The figure quoted is the concentration required to reduce assembly of tubulin by 50%. Tubulin assembly is monitored by light scatter/absorption at 350 nm.
as §1

Data set [4] deals with tubulin. The data set is described as follows: MA IC50 (Tables 12-26, abbreviation not defined). The format is biochemical.
Data set [5] deals with tubulin. The data set is described as follows: CD IC50 (Tables 12-26, abbreviation not defined). The format is binding.
A further data set has as its system K562 cells. Nature of the data set: In situ ultra violet irradiation of dosed K562 cells, IC50. The format is cell-based, human. The note with it: read-out: IC50 K562 (nm). The procedure: Previously, the isomerisation study had been performed ex situ, i.e. in a photochemical reactor. However, it was necessary to illustrate the potential of the process as a real therapy by repeating the isomerization in the presence of the caner cells i.e. in situ. […] Following irradiation, the cells were incubated in the normal way and the IC50 values were determined.
These consisted of i) exposing K562 cells only (i.e. cells which were not dosed with any potential drug candidate) to ultra violet light, ii) preventing K562 cells dosed with drug candidate from being exposed to ultra violet light, and iii) preventing K562 cells only (i.e. cells which were not dosed with any potential drug candidate) from being exposed to ultra violet light. […]

Data set [6] concerns K562. The data set is described as follows: IC50 of aliquots after ex situ irradiation in a photochemical reactor. The note with it: for IC50: read-out: IC50 K562, ex situ irradiation in benzene, 400W Hg lamp.
A short description of data set [7]: Photocleavage and isomerisation of coupled trans-CA-4 ex situ, composition (HPLC). The format is physicochemical. The note with it: benzene. The text has this: The following compound retention times were observed:
Where [8] appears, read: irradiation 20. mins [sic] (Table 8).
[9] abbreviates: irradiation 10.0 mins (Table 8).
The mark [10] stands for this setting: irradiation 12.5 mins (Table 8).

Where two headings read alike, the source gives them in different places. Some results are limits rather than exact numbers.

`COc1cc(C=Cc2ccc(C=O)cc2)cc(OC)c1OC` [Compound 96-188]: the IC50 (in general, the concentration that gives 50% inhibition) in [1] (MTT) amounted to 320 nM; in the data set with A2780, 81 nM.

`COc1ccc(C=Cc2ccc(C)c(C)c2)cc1O` [Compound 146]: in the data set on K562 [2], the “% of cells with DNA content <2 n” value stood at 31%, the “% of cells in G0–G1” value was found to be 8%, the “% of cells in G2-M” value was 65% and the “% of cells in S phase” value is recorded as 27%. Besides, in data set [1] (Mus musculus, P388, MTT), 400 nM corresponded to half-maximal inhibition (IC50). In addition, in data set [3], the IC50 is 70 nM. The molecule further returned an IC50 in the data set on tubulin [4] of 3090 nM. This molecule also gave an IC50 in the data set on tubulin [5] of 12500 nM.

`COc1ccc(C=Cc2ccc(C)c(C)c2)cc1F` [Compound 147]: the “% of cells with DNA content <2 n” value with K562 [2] is listed as 28%. Besides, in the data set on K562 [2], the “% of cells in G0–G1” value was 10%. Besides, in the data set on K562 [2], the “% of cells in G2-M” value turned out to be 57%. Also, the “% of cells in S phase” value in the data set on K562 [2] was found to be 33%. Moreover, the IC50 in data set [1] (Mus musculus, P388, MTT) was 1700 nM; in data set [3], 90 nM; in the data set with tubulin [4], 6570 nM; in the data set on tubulin [5], above 25000 nM.

Turning to `COC(=O)CCCOc1cc([N+](=O)[O-])c(COc2cc(/C=C/c3cc(OC)c(OC)c(OC)c3)ccc2OC)cc1OC` [Compound E-8, Methyl 4-[2′-methoxy-4′-({2″-methoxy-5″-[(E)-2′″-3′″,4′″,5′″-trimethoxyphenylethenyl]phenoxy}-methyl)-5′-nitrophenoxy]butanoate], the IC50 in the data set with K562 cells (in situ UV 0 mins (Table 9)) is above 100000 nM; in the data set with K562 cells (in situ UV 0.5 mins (Table 9)), 1540 nM; with K562 cells (in situ UV 1 mins (Table 9)) it was 450 nM; in the data set on K562 cells (in situ UV 1.5 mins (Table 9)) it was 250 nM; in the data set on K562 cells (in situ UV 2 mins (Table 9)), 130 nM; with K562 cells (in situ UV 3 mins (Table 9)), 40 nM. Also, the IC50 is 11 nM in the data set on K562 cells (in situ UV 4 mins (Table 9)); 9 nM in the data set with K562 cells (in situ UV 5 mins (Table 9)); 5 nM with K562 cells (in situ UV 7.5 mins (Table 9)); 2 nM with K562 cells (in situ UV 10 mins (Table 9)); 3 nM in the data set with K562 cells (in situ UV 12.5 mins (Table 9)); 3 nM with K562 cells (in situ UV 15 mins (Table 9)). The IC50 is 2 nM in the data set on K562 cells (in situ UV 17.5 mins (Table 9)); 2 nM with K562 cells (in situ UV 20 mins (Table 9)); above 150000 nM in the data set with K562 [6] (0 mins (Table 8)); 59 nM in the data set on K562 [6] (20. mins as printed (Table 8)); 14600 nM in the data set on K562 [6] (0.5 mins (Table 8)); 450 nM in the data set on K562 [6] (1.0 mins (Table 8)). The IC50 was determined as 90 nM with K562 [6] (1.5 mins (Table 8)); 14 nM in the data set with K562 [6] (3.0 mins (Table 8)); 12 nM in the data set on K562 [6] (4.0 mins (Table 8)); 8 nM in the data set with K562 [6] (5.0 mins (Table 8)); 4 nM with K562 [6] (7.5 mins (Table 8)); 6 nM in the data set on K562 [6] (10.0 mins (Table 8)). Also, the IC50 in the data set on K562 [6] (12.5 mins (Table 8)) was found to be 2 nM; with K562 [6] (15.0 mins (Table 8)), 2 nM; in the data set on K562 [6] (17.5 mins (Table 8)) it was 4 nM; in the data set on K562 [6] (20.0 mins (Table 8)) it was 3 nM. Moreover, the “times less cytotoxic than trans-CA-4” value in the data set with K562 [6] (K562) amounted to 5. In addition, the “% coupled trans-CA-4 (E-8)” value in [7] (irradiation 0 mins (Table 8)) stood at 100%; in [7] (setting [8]), 72%; in data set [7] (irradiation 0.5 mins (Table 8)), 93%; in [7] (irradiation 1.0 mins (Table 8)) it was 88%; in data set [7] (irradiation 1.5 mins (Table 8)), 80%; in data set [7] (irradiation 3.0 mins (Table 8)), 62%. Moreover, the “% coupled trans-CA-4 (E-8)” value in data set [7] (irradiation 4.0 mins (Table 8)) was found to be 61%; in [7] (irradiation 5.0 mins (Table 8)), 53%; in [7] (irradiation 7.5 mins (Table 8)), 42%; in [7] (setting [9]), 34%; in [7] (setting [10]) it was 20%. In addition, the “% cis-CA-4” value in data set [7] (setting [8]) worked out at 9%; in data set [7] (irradiation 1.0 mins (Table 8)) it was 4%; in data set [7] (irradiation 1.5 mins (Table 8)) it was 8%; in [7] (irradiation 3.0 mins (Table 8)), 11%; in data set [7] (irradiation 4.0 mins (Table 8)) it was 8%; in data set [7] (irradiation 5.0 mins (Table 8)), 10%. The figures for the “% cis-CA-4” value in [7] (irradiation 7.5 mins (Table 8)), in [7] (setting [9]) and in data set [7] (setting [10]) were 13%, 19% and 45%, respectively. The “% trans-CA-4” value came out at 19% in data set [7] (setting [8]); 7% in data set [7] (irradiation 0.5 mins (Table 8)); 8% in [7] (irradiation 1.0 mins (Table 8)); 12% in data set [7] (irradiation 1.5 mins (Table 8)); 27% in data set [7] (irradiation 3.0 mins (Table 8)); 31% in data set [7] (irradiation 4.0 mins (Table 8)). Besides, the “% trans-CA-4” value stood at 37% in [7] (irradiation 5.0 mins (Table 8)), 45% in [7] (irradiation 7.5 mins (Table 8)), 47% in [7] (setting [9]) and 35% in data set [7] (setting [10]).
